This note sets out measurements from US20230061859A1, “PYRIDO[2,3-D]PYRIMIDINE HIV-1 REVERSE TRANSCRIPTASE INHIBITOR WB3, PREPARATION METHOD AND APPLICATION THEREOF” (SHAN DONG UNIVERSITY, priority 2020, published 2023).

By EC50 is commonly meant the concentration giving half of the maximal effect. The term CC50 denotes the concentration giving 50% cytotoxicity. In general, Cmax refers to the maximum level reached in the sampled fluid or tissue.

Data set [1] has as its system HIV-1 mutant strain RV1 (K101E+Y181V). Nature of the data set: Anti-HIV activity, luciferase single-round infection of TZM-bl cells, RV-1. Format: cell-based. The following applies: Human immunodeficiency virus 1, TZM-bl, read-out: EC50 RV-1. As for the experimental part:
(§1) The target compound WB3 was evaluated its activity against HIV-1 NL4-3, HIV-1 mutant strains GH9 (K101P+K103N+V108I), RV1 (K101E+Y181V), RV2 (K101E+Y181C+G190A), RV3 (K101E+Y181C+E138K), RV4 (L100I+M230I) and RV5 (M230L). Rilpivirine (RPV) was selected as control drug.
(§2) Inhibition of HIV-1 infection was measured as reduction in luciferase gene expression after a single round of virus infection of TZM-bl cells. Briefly, 200 TCID50 of virus (NL4-3, GH9, RV-1, RV-2, RV-3, RV-4 and RV-5) was used to infect TZM-bl cells in the presence of various concentrations of compounds. Two days after infection, the culture medium was removed from each well and 100 μL of Bright Glo reagent (Promega, Luis Obispo, Calif.) was added to the cells for measurement of luminescence with a Victor 2 luminometer. […] The cytotoxicity of compounds was determined using a colorimetric 2,3-bis-(2-methoxy-4-nitro-5-sulfophenyl)-2H-tetrazolium-5-carboxanilide (XTT) assay. An amount of 100 μL of the test compounds at graded concentrations was added to equal volumes of cells (5×10^5/mL) in wells of a 96-well plate. Incubation at 37° C. for four days, then 50 μL of XTT solution (1 mg/mL) containing 0.02 μM phenazine methosulfate (PMS) was added. After four hours, the absorbance at 450 nm was measured with an ELISA reader. The CC50 values were calculated using the CalsuSyn computer program as described above.

In data set [2] the test system is HIV-1 mutant strain RV3 (K101E+Y181C+E138K). Description: Anti-HIV activity, luciferase single-round infection of TZM-bl cells, RV-3. Type of data set: cell-based. The following applies: Human immunodeficiency virus 1, TZM-bl, read-out: EC50 RV-3. As for the experimental part:
as §1, §2

The next data set is described as follows: Cytotoxicity, XTT assay. The following applies: human, mock-infected TZM-bl cells. Format: cell-based. As for the experimental part: as §2
Data set [3] relates to HIV-1 mutant strain RV2 (K101E+Y181C+G190A). Nature of the data set: Anti-HIV activity, luciferase single-round infection of TZM-bl cells, RV-2. Format: cell-based. The following applies: Human immunodeficiency virus 1, TZM-bl, read-out: EC50 RV-2. As for the experimental part: as §1, §2
The test system of data set [4] is HIV-1 NL4-3 (wild-type HIV-1 viral strain). Description: Anti-HIV activity, luciferase single-round infection of TZM-bl cells, NL4-3. Type of data set: cell-based. The following applies: Human immunodeficiency virus 1, NL43, wild-type HIV-1 NL4-3. As to the method: as §1, §2
In data set [5] the test system is HIV-1 mutant strain RV4 (L100I+M230I). Description: Anti-HIV activity, luciferase single-round infection of TZM-bl cells, RV-4. Type of data set: cell-based. The conditions noted are these: Human immunodeficiency virus 1, TZM-bl, read-out: EC50 RV-4. As for the experimental part:
as §1, §2

The subject of data set [6] is HIV-1 mutant strain GH9 (K101P+K103N+V108I). Nature of the data set: Anti-HIV activity, luciferase single-round infection of TZM-bl cells, GH9. Type of data set: cell-based. The conditions noted are these: for EC50: Human immunodeficiency virus 1, TZM-bl, read-out: EC50 GH9. As to the method: as §1, §2
Data set [7] deals with HIV-1 mutant strain RV5 (M230L). Description: Anti-HIV activity, luciferase single-round infection of TZM-bl cells, RV-5. Type of data set: cell-based. The following applies: Human immunodeficiency virus 1, TZM-bl, read-out: EC50 RV-5. As for the experimental part: as §1, §2
The nature of data set [8]: Pharmacokinetics by single iv and po administration in Wistar rats. Type of data set: in vivo. As to the method: Then, WB3 was evaluated its pharmacokinetics profiles by single iv and po administration in Wistar rats. […] These favorable PK results are sufficient to support the ability of WB3 to become an orally bioavailable NNRTIs drug candidate.
All the samples were then centrifuged at 8000 rpm for 8 min to separate plasma, which was stored at −78° C. until analysis. […] Standard curves for WB3 in blood were generated by the addition of various concentrations of WB3 together with internal standard to blank plasma.
The plasma pharmacokinetic data were analyzed by using the […] of DAS 2.0 pharmacokinetic program. The main pharmacokinetic parameters (Cmax, AUC, Tmax, T1/2, and CL) were calculated.

As to `Cc1cc(/C=C/C#N)cc(C)c1Nc1ccnc(Nc2ccc(C#N)cc2)n1` [RPV, Rilpivirine, reference compound], the EC50 was 0.0456 ± 0.0126 µM in [1]; 0.0881 ± 0.0374 µM in [2]; 0.0243 ± 0.00573 µM in data set [3]; 0.00096 ± 0.0003 µM in [4]; 0.00982 ± 0.00235 µM in data set [5]; more than 0.273 µM in [6]. The EC50 in data set [7] came to 0.0104 ± 0.00327 µM. In “Cytotoxicity, XTT assay”, this compound gave a CC50 at 4 days of more than 0.341 µM.

Regarding `Cc1cc(/C=C/C#N)cc(C)c1Oc1nc(NC2CCN(Cc3ccc(S(C)(=O)=O)cc3)CC2)nc2ncccc12` [WB3], the 50% effective concentration (EC50) was 0.0183 ± 0.0058 µM in [1]; more than 0.106 µM in data set [2]; 0.029 ± 0.0109 µM in data set [3]; 0.00116 µM in [4]; 0.00932 ± 0.00246 µM in [5]; 0.00137 µM in data set [6]. Further, the EC50 in data set [7] was 0.00615 ± 0.00229 µM. For the same compound, the 50% cytotoxic concentration (CC50) at 4 days in “Cytotoxicity, XTT assay” is more than 0.044 µM. In addition, in data set [8] (iv 2 mg/kg (Table 2)), the CL was determined as 20.6 ± 4.50 mL. In addition, in data set [8] (male, rat, plasma, iv 2 mg/kg), the highest level (Cmax) was 1490 ng/mL. For the same compound, the “fold potency versus rilpivirine against GH9” value in data set [6] (EC50 ratio to rilpivirine, GH9 strain) is “up to 200 fold”.
